Data set [1] has as its system pancreatic and lung cancer. The settings on record: Talabostat alone or with cytokine or chemotherapeutic agents; cited from earlier work.
For data set [2], the system named is MC38 mouse colon cancer cell line. Briefly: Antitumor effect in MC38 mouse model of colon adenocarcinoma (tumor volume, tolerability; Study 1 and Study 2). Format: in vivo. An excerpt: Six to seven-week-old female C57BL/6 mice were used in the studies. Mice received food and water ad libitum. The study protocol, the procedures involving the care and use of animals were reviewed and approved by the Institutional Animal Care and Use Committee (IACUC) to ensure compliance with the regulations of the Association for Assessment and Accreditation of Laboratory Animal Care (AAALAC).
MC38 mouse colon cancer cell line was provided by GenScript. The tumor cells were maintained as monolayer culture in DMEM supplemented with 10% fetal bovine serum (FBS), 1% Glutamax® and 1% Penicillin-Streptomycin at 37° C. in an atmosphere with 5% CO2. The cells were routinely subcultured every 2 days to maintain growth at exponential phase. The tumor cells growing in exponential growth phase were harvested by trypsinization, followed by centrifugation at 335×g relative centrifugal force (RCF) in a centrifuge. The supernatant was subsequently removed by aspiration. Cell pellet was resuspended in approximately 10× volume of cell culture medium and counted. The cell suspension was centrifuged again and processed as above and finally resuspended in HBSS−/− at a density of 1×10^7 cells per ml. Cell viability was determined to be 95% by trypan blue staining. Cell suspensions were implanted in the subcutaneous space of the flank of mice of female C57BL/6 mice (2.0×10^6 MC-38 cells in 0.2 mL Hanks Balanced Salt Solution). Mice were inoculated subcutaneously in the right lower flank (near the dorsal thigh region) with a single volume of 0.1 ml cell suspension containing about 1×10^6 cells.
Tumor size was measured twice per week in 2 dimensions using a caliper (recorded up to one decimal point). Tumor volume, expressed in mm^3, was calculated using the following formula, in which “a” and “b” were the long and the short diameters of a tumor, respectively. V (mm^3)=(a×b^2)/2
Animals were weighed and randomized into treatment groups when the mean tumor size was around 120 mm^3 on Day 0.
Data related to tumor volume, tumor weight, and body weight were presented as mean and the standard error of the mean (SEM). Statistical analyses were conducted using Student's t-test. P<0.05 was considered statistically significant. * and ** indicate P<0.05 and P<0.01, respectively.
The antitumor effect of single dose (qd) as well as twice daily (bid) administration of Talabostat alone and in combination with PD-1 antagonist at various dose schedules was evaluated in MC-38 (murine colon) tumor bearing mice. After the tumors were established, mice were sorted into various groups with a mean tumor volume of ˜200 mm^3. The test article and antibody were administered according to the dosing schedules described in Tables 5 and 6.

The conditions of data set [3]: in vivo; cited from earlier work.
Data set [4] has as its system CT26 tumor cells. Briefly: Immunophenotyping of CT26 tumor samples by quantitative PCR (NK cells, perforin, granzyme B, Tregs). The conditions noted are these: CT26, day 7 after first dosing; Talabostat 20 μg/mouse qd, PD-1 antagonist 5 mg/kg. It is filed as in vivo. The procedure: Mice (Balb/c) corresponding to 20±2 g weight, received food and water ad libitum. The study protocol, the procedures involving the care and use of animals were reviewed and approved by the Institutional Animal Care and Use Committee (IACUC) to ensure compliance with the regulations of the Association for Assessment and Accreditation of Laboratory Animal Care (AAALAC).
Tumor Model The CT26 tumor cells were cultured in RPMI1640 medium supplemented with 10% heat inactivated fetal bovine serum, 100 U/ml penicillin and 100 μg/ml streptomycin, at 37° C. in an incubator of 5% CO2. The tumor cells were routinely subcultured three times per week. The cells growing in an exponential growth phase were harvested and counted for tumor inoculation. […]
The immuno-modulatory effect of the single dose (20 μg/mouse qd) administration of Talabostat alone and in combination with PD-1 antagonist (5 mg/kg), at various dose schedules was analysed by collecting the blood and the tumor samples 7 days after the first dosing the mice.
Tumor RNA samples were extracted from the frozen tumor tissues using the Trizol reagent. […] Quantitative PCR were conducted using a master mix from Invitrogen (Cat. #4309155) on an ABI 7900HT Fast Real-Time PCR System. The results were analyzed using a Delta Delta Ct method. […]

Data set [5] concerns melanoma. The settings on record: monotherapy or combination; cited from earlier work.

Regarding `CC(C)[C@H](N)C(=O)N1CCC[C@H]1B(O)O` [Talabostat, [(2R)-I-I [(2S)-2-amino-3-methyl-1-oxobutyl]-2-pyrrolidinyl] boronic acid], the “Primary and secondary endpoints in clinical trials” value in data set [1] is on record as “unable to meet primary as well as secondary endpoints”. The “Mean (±SEM) tumor volume” value in data set [2] (Study 1, MC38, Day 13, Talabostat 10 μg twice daily p.o.) was 1.66 (±0.48) cc; in data set [2] (Study 1, MC38, Day 13, Talabostat 20 μg twice daily p.o.), 1.30 (±0.42) cc; in data set [2] (Study 2, MC38, Day 11, Talabostat 2.5 μg BID p.o.) it was 3.2 (±0.48) cc; in data set [2] (Study 2, MC38, Day 11, Talabostat 5 μg BID p.o.), 2.9 (±0.42) cc; in data set [2] (Study 2, MC38, Day 11, Talabostat 10 μg BID p.o.), 2.9 (±0.18) cc; in data set [2] (Study 2, MC38, Day 11, Talabostat 20 μg QD p.o.), 2.0 (±0.43) cc. The “Antitumor effect compared with the vehicle control group” value in data set [2] (Study 1, MC38, single treatment groups) was “significant better effect”. In addition, the “Most common adverse events” value in data set [3] is “edema/peripheral swelling, hypotension, hypovolemia, and dizziness”. Moreover, in data set [4], the “NK cell activation, perforin (Pfr1) release in tumor (relative mRNA)” value is recorded as “activation in terms of release of perforin”.

For “Ipilimumab: CTLA-4 antagonist; human monoclonal antibody, CAS No. 477202-00-9”, the “Response rate in melanoma patients” value in data set [5] is 11%.

On to “Nivolumab: anti-PD-1 antibody, CAS Registry Number 946414-94-4”, for which the “Response rate in melanoma patients” value in data set [5] is recorded as 32%.

Values taken from patent US11564986B2, “Approach for treatment of cancer via immunomodulation by using talabostat” (ONKOSXCEL THERAPEUTICS, LLC, priority 2015, dated 2023).
